In patent publication US20230085307A1, “PYRIDAZINONE COMPOUND AND HERBICIDE” (NISSAN CHEMICAL CORPORATION, priority 2019, published 2023):

Assays:
[1] = tested on: rice flat sedge; experiment: Test Example 3: herbicidal effect by foliage application, Wagner pot (Table 18, symbol E); format: in vivo, rice flat sedge (Cyperus iria); details: 320 g/ha
Method in brief: (§1)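 Plants were sown in alluvial soil held under 0.1–0.5 cm standing water and grown 14 days in a greenhouse at 25–30 °C. An emulsifiable formulation, water-diluted to the set dose, was then sprayed onto the foliage, and effects were scored three weeks later using previously defined criteria.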

[2] = tested on: lambsquarters; experiment: Test Example 4: herbicidal effect by soil treatment (Table 19, symbol O); format: in vivo, lambsquarters (Chenopodium album); details: amount of applied herbicide 320 g/ha
Method in brief: (§2)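 Emulsion of test compound, water-diluted to predetermined amount, sprayed on soil after sowing (seed depth ~1.5 cm, sterilized diluvial soil). Greenhouse, 25–30° C. Effect graded at three weeks post-spray.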

[3] = tested on: southern crabgrass; experiment: Test Example 4: herbicidal effect by soil treatment (Table 19, symbol F); format: in vivo, southern crabgrass (Digitaria ciliaris); details: amount of applied herbicide 320 g/ha
Method in brief: as §2

[4] = tested on: green foxtail; experiment: Test Example 5: herbicidal effect by foliage application, plastic box (Table 20, symbol G); format: in vivo, green foxtail (Setaria viridis); details: 320 g/ha, foliage application after 14-day growth, evaluated three weeks after application
Method in brief: (§3)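 Post-emergence foliar test in sterilized diluvial soil. Compound applied as water-diluted emulsion at a predetermined rate to 14-day-old plants; evaluation at three weeks.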

[5] = tested on: late watergrass; experiment: Test Example 1: herbicidal activity, application before weed generation under submerged conditions (Table 16, symbol A); format: in vivo, late watergrass (Echinochloa oryzicola); details: amount of applied herbicide 320 g/ha
Method in brief: (§4)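 Alluvial soil was flooded to 4 cm depth, weed seeds were sown mixed and 2.5-leaf rice seedlings were transplanted. On sowing day, the compound's emulsion, diluted in water to a set dose, was applied to the water surface. Plants grew at 25–30 °C and were scored 0–5 after three weeks.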

[6] = tested on: Chinese sprangletop; experiment: Test Example 3: herbicidal effect by foliage application, Wagner pot (Table 18, symbol D); format: in vivo, chinese sprangletop (Leptochloa chinensis); details: 320 g/ha
Method in brief: as §1

[7] = tested on: lambsquarters; experiment: Test Example 5: herbicidal effect by foliage application, plastic box (Table 20, symbol O); format: in vivo, lambsquarters (Chenopodium album); details: 320 g/ha, foliage application after 14-day growth, evaluated three weeks after application
Method in brief: as §3

[8] = tested on: velvetleaf; experiment: Test Example 4: herbicidal effect by soil treatment (Table 19, symbol M); format: in vivo, velvetleaf (Abutilon theophrasti); details: amount of applied herbicide 320 g/ha
Method in brief: as §2

[9] = tested on: persian speedwell; experiment: Test Example 5: herbicidal effect by foliage application, plastic box (Table 20, symbol R); format: in vivo, Persian speedwell (Veronica persica); details: 320 g/ha, foliage application after 14-day growth, evaluated three weeks after application
Method in brief: as §3

[10] = tested on: redroot pigweed; experiment: Test Example 4: herbicidal effect by soil treatment (Table 19, symbol N); format: in vivo, redroot pigweed (Amaranthus retroflexus); details: amount of applied herbicide 320 g/ha
Method in brief: as §2

[11] = tested on: windgrass; experiment: Test Example 5: herbicidal effect by foliage application, plastic box (Table 20, symbol L); format: in vivo, windgrass (Apera spica-venti); details: 320 g/ha, foliage application after 14-day growth, evaluated three weeks after application
Method in brief: as §3

[12] = tested on: blackgrass; experiment: Test Example 4: herbicidal effect by soil treatment (Table 19, symbol J); format: in vivo, blackgrass (Alopecurus myosuroides); details: amount of applied herbicide 320 g/ha
Method in brief: as §2

[13] = tested on: chickweed; experiment: Test Example 5: herbicidal effect by foliage application, plastic box (Table 20, symbol P); format: in vivo, common chickweed (Stellaria media); details: 320 g/ha, foliage application after 14-day growth, evaluated three weeks after application
Method in brief: as §3

[14] = tested on: windgrass; experiment: Test Example 4: herbicidal effect by soil treatment (Table 19, symbol L); format: in vivo, windgrass (Apera spica-venti); details: amount of applied herbicide 320 g/ha
Method in brief: as §2

[15] = tested on: green foxtail; experiment: Test Example 4: herbicidal effect by soil treatment (Table 19, symbol G); format: in vivo, green foxtail (Setaria viridis); details: amount of applied herbicide 320 g/ha
Method in brief: as §2

[16] = tested on: Japanese bulrush; experiment: Test Example 1: herbicidal activity, application before weed generation under submerged conditions (Table 16, symbol B); format: in vivo, Japanese bulrush (Schoenoplectus juncoides); details: amount of applied herbicide 320 g/ha
Method in brief: as §4

[17] = tested on: southern crabgrass; experiment: Test Example 5: herbicidal effect by foliage application, plastic box (Table 20, symbol F); format: in vivo, southern crabgrass (Digitaria ciliaris); details: 320 g/ha, foliage application after 14-day growth, evaluated three weeks after application
Method in brief: as §3

[18] = tested on: persian speedwell; experiment: Test Example 4: herbicidal effect by soil treatment (Table 19, symbol R); format: in vivo, Persian speedwell (Veronica persica); details: amount of applied herbicide 320 g/ha
Method in brief: as §2

[19] = tested on: barnyard grass; experiment: Test Example 4: herbicidal effect by soil treatment (Table 19, symbol H); format: in vivo, barnyard grass (Echinochloa crus-galli); details: amount of applied herbicide 320 g/ha
Method in brief: as §2

[20] = tested on: blackgrass; experiment: Test Example 5: herbicidal effect by foliage application, plastic box (Table 20, symbol J); format: in vivo, blackgrass (Alopecurus myosuroides); details: 320 g/ha, foliage application after 14-day growth, evaluated three weeks after application
Method in brief: as §3

[21] = tested on: wild oat; experiment: Test Example 4: herbicidal effect by soil treatment (Table 19, symbol I); format: in vivo, wild oat (Avena fatua); details: amount of applied herbicide 320 g/ha
Method in brief: as §2

[22] = tested on: oval-leafed pondweed; experiment: Test Example 1: herbicidal activity, application before weed generation under submerged conditions (Table 16, symbol C); format: in vivo, oval-leafed pondweed (Monochoria vaginalis); details: amount of applied herbicide 320 g/ha
Method in brief: as §4

[23] = tested on: Italian ryegrass; experiment: Test Example 4: herbicidal effect by soil treatment (Table 19, symbol K); format: in vivo, Italian ryegrass (Lolium multiflorum); details: amount of applied herbicide 320 g/ha
Method in brief: as §2

[24] = tested on: barnyard grass; experiment: Test Example 3: herbicidal effect by foliage application, Wagner pot (Table 18, symbol H); format: in vivo, barnyard grass (Echinochloa crus-galli); details: 320 g/ha
Method in brief: as §1

[25] = tested on: chickweed; experiment: Test Example 4: herbicidal effect by soil treatment (Table 19, symbol P); format: in vivo, common chickweed (Stellaria media); details: amount of applied herbicide 320 g/ha
Method in brief: as §2

[26] = tested on: redroot pigweed; experiment: Test Example 5: herbicidal effect by foliage application, plastic box (Table 20, symbol N); format: in vivo, redroot pigweed (Amaranthus retroflexus); details: 320 g/ha, foliage application after 14-day growth, evaluated three weeks after application
Method in brief: as §3

[27] = tested on: Italian ryegrass; experiment: Test Example 5: herbicidal effect by foliage application, plastic box (Table 20, symbol K); format: in vivo, Italian ryegrass (Lolium multiflorum); details: 320 g/ha, foliage application after 14-day growth, evaluated three weeks after application
Method in brief: as §3

[28] = tested on: velvetleaf; experiment: Test Example 5: herbicidal effect by foliage application, plastic box (Table 20, symbol M); format: in vivo, velvetleaf (Abutilon theophrasti); details: 320 g/ha, foliage application after 14-day growth, evaluated three weeks after application
Method in brief: as §3

[29] = tested on: barnyard grass; experiment: Test Example 5: herbicidal effect by foliage application, plastic box (Table 20, symbol H); format: in vivo, barnyard grass (Echinochloa crus-galli); details: 320 g/ha, foliage application after 14-day growth, evaluated three weeks after application
Method in brief: as §3

[30] = tested on: wild oat; experiment: Test Example 5: herbicidal effect by foliage application, plastic box (Table 20, symbol I); format: in vivo, wild oat (Avena fatua); details: 320 g/ha, foliage application after 14-day growth, evaluated three weeks after application
Method in brief: as §3

| Structure (SMILES) | herbicidal effect on rice flat sedge (E) [1] | Herbicidal effect by soil treatment, O: lambsquarters [2] | Herbicidal effect by soil treatment, F: southern crabgrass [3] | herbicidal effect on G: green foxtail (evaluation grade 0-5) [4] | Herbicidal effect, A: late watergrass [5] | herbicidal effect on Chinese sprangletop (D) [6] | herbicidal effect on O: lambsquarters (evaluation grade 0-5) [7] | Herbicidal effect by soil treatment, M: velvetleaf [8] | herbicidal effect on R: persian speedwell (evaluation grade 0-5) [9] | Herbicidal effect by soil treatment, N: redroot pigweed [10] | herbicidal effect on L: windgrass (evaluation grade 0-5) [11] | Herbicidal effect by soil treatment, J: blackgrass [12] | herbicidal effect on P: chickweed (evaluation grade 0-5) [13] | Herbicidal effect by soil treatment, L: windgrass [14] | Herbicidal effect by soil treatment, G: green foxtail [15] | Herbicidal effect, B: Japanese bulrush [16] | herbicidal effect on F: southern crabgrass (evaluation grade 0-5) [17] | Herbicidal effect by soil treatment, R: persian speedwell [18] | Herbicidal effect by soil treatment, H: barnyard grass [19] | herbicidal effect on J: blackgrass (evaluation grade 0-5) [20] | other results |
| --- | --- | --- | --- | --- | --- | --- | --- | --- | --- | --- | --- | --- | --- | --- | --- | --- | --- | --- | --- | --- | --- |
| CCOc1ccccc1-c1sc2c(F)cccc2c1-c1c(O)c(C)nn(C)c1=O [4-007] | 5 (Herbicidal rate of 90% or more (almost completely withered)) | 0 (Herbicidal rate of 5% or less (almost no effect)) | 0 (Herbicidal rate of 5% or less (almost no effect)) | 5 (Herbicidal rate of 90% or more (almost completely withered)) | 3 (Herbicidal rate of 40% or more and less than 70%) | 3 (Herbicidal rate of 40% or more and less than 70%) | 1 (Herbicidal rate of 5% or more and less than 20%) | 0 (Herbicidal rate of 5% or less (almost no effect)) | 5 (Herbicidal rate of 90% or more (almost completely withered)) | 0 (Herbicidal rate of 5% or less (almost no effect)) | 2 (Herbicidal rate of 20% or more and less than 40%) | 3 (Herbicidal rate of 40% or more and less than 70%) | 5 (Herbicidal rate of 90% or more (almost completely withered)) | 0 (Herbicidal rate of 5% or less (almost no effect)) | 0 (Herbicidal rate of 5% or less (almost no effect)) | 0 (Herbicidal rate of 5% or less (almost no effect)) | 3 (Herbicidal rate of 40% or more and less than 70%) | 3 (Herbicidal rate of 40% or more and less than 70%) | 0 (Herbicidal rate of 5% or less (almost no effect)) | 4 (Herbicidal rate of 70% or more and less than 90%) | Herbicidal effect by soil treatment, I: wild oat [21]: 0 (Herbicidal rate of 5% or less (almost no effect)); Herbicidal effect, C: oval-leafed pondweed [22]: 0 (Herbicidal rate of 5% or less (almost no effect)); Herbicidal effect by soil treatment, K: Italian ryegrass [23]: 0 (Herbicidal rate of 5% or less (almost no effect)); herbicidal effect on barnyard grass (H) [24]: 5 (Herbicidal rate of 90% or more (almost completely withered)); Herbicidal effect by soil treatment, P: chickweed [25]: 3 (Herbicidal rate of 40% or more and less than 70%); herbicidal effect on N: redroot pigweed (evaluation grade 0-5) [26]: 3 (Herbicidal rate of 40% or more and less than 70%); herbicidal effect on K: Italian ryegrass (evaluation grade 0-5) [27]: 4 (Herbicidal rate of 70% or more and less than 90%); herbicidal effect on M: velvetleaf (evaluation grade 0-5) [28]: 3 (Herbicidal rate of 40% or more and less than 70%); herbicidal effect on H: barnyard grass (evaluation grade 0-5) [29]: 4 (Herbicidal rate of 70% or more and less than 90%); herbicidal effect on I: wild oat (evaluation grade 0-5) [30]: 2 (Herbicidal rate of 20% or more and less than 40%) |
| CCCOc1ccc(-c2sc3c(F)cccc3c2-c2c(O)c(C)nn(C)c2=O)cc1 [4-009] | 5 (Herbicidal rate of 90% or more (almost completely withered)) | 3 (Herbicidal rate of 40% or more and less than 70%) | 0 (Herbicidal rate of 5% or less (almost no effect)) | 2 (Herbicidal rate of 20% or more and less than 40%) | 2 (Herbicidal rate of 20% or more and less than 40%) | 3 (Herbicidal rate of 40% or more and less than 70%) | 4 (Herbicidal rate of 70% or more and less than 90%) | 0 (Herbicidal rate of 5% or less (almost no effect)) | 5 (Herbicidal rate of 90% or more (almost completely withered)) | 5 (Herbicidal rate of 90% or more (almost completely withered)) | 4 (Herbicidal rate of 70% or more and less than 90%) | 0 (Herbicidal rate of 5% or less (almost no effect)) | 5 (Herbicidal rate of 90% or more (almost completely withered)) | 0 (Herbicidal rate of 5% or less (almost no effect)) | 0 (Herbicidal rate of 5% or less (almost no effect)) | 1 (Herbicidal rate of 5% or more and less than 20%) | 3 (Herbicidal rate of 40% or more and less than 70%) | 4 (Herbicidal rate of 70% or more and less than 90%) | 0 (Herbicidal rate of 5% or less (almost no effect)) | 4 (Herbicidal rate of 70% or more and less than 90%) | Herbicidal effect by soil treatment, I: wild oat [21]: 0 (Herbicidal rate of 5% or less (almost no effect)); Herbicidal effect, C: oval-leafed pondweed [22]: 0 (Herbicidal rate of 5% or less (almost no effect)); Herbicidal effect by soil treatment, K: Italian ryegrass [23]: 0 (Herbicidal rate of 5% or less (almost no effect)); herbicidal effect on barnyard grass (H) [24]: 5 (Herbicidal rate of 90% or more (almost completely withered)); Herbicidal effect by soil treatment, P: chickweed [25]: 4 (Herbicidal rate of 70% or more and less than 90%); herbicidal effect on N: redroot pigweed (evaluation grade 0-5) [26]: 5 (Herbicidal rate of 90% or more (almost completely withered)); herbicidal effect on K: Italian ryegrass (evaluation grade 0-5) [27]: 4 (Herbicidal rate of 70% or more and less than 90%); herbicidal effect on M: velvetleaf (evaluation grade 0-5) [28]: 3 (Herbicidal rate of 40% or more and less than 70%); herbicidal effect on H: barnyard grass (evaluation grade 0-5) [29]: 5 (Herbicidal rate of 90% or more (almost completely withered)); herbicidal effect on I: wild oat (evaluation grade 0-5) [30]: 0 (Herbicidal rate of 5% or less (almost no effect)) |
